Experimental data published in US12514935B2, “Nanocarrier systems for imaging and delivery of active agents” (Kansas State University Research Foundation, priority 2018, dated 2026).

Tests used:
THP-1 cells [1] = test: In vitro cytokine release assay of BNc; assay type: cell-based, human; details: THP-1, 100 μg/mL (LPS 3 μg/mL), 24 h
Procedure: The immunogenicity of the prepared BNc along with the bare PLGA NP were tested for its immunoregulatory potential using standard cytokine release assay. In brief, 8×10^5 THP-1 cells were seeded in a 12-well plate and treated with bare PLGA NP (100 μg/mL), NKM (100 μg/mL), Gd-lipid (100 μg/mL) and BNc (100 μg/mL) at 37° C. for 24 h. After 24 h incubation, cell culture supernatants were collected, centrifuged, removed cell debris and stored at −20° C. as small aliquots. For cytokine assay, samples were thawed and analyzed for pro-inflammatory cytokines, IL-1β (LOD: 1.7 pg/ml), IL-6 (LOD: 1.5 pg/mL), and TNF-α (LOD: 1 pg/mL) using Magnetic Human Cytokine Multiplex Assays Kit (R&D Systems, Inc. Minneapolis, MN) in Luminex MagPix® instrument (Millipore Inc.) as per the manufacturer recommendations. For positive control, cells were dosed with 3 μg/mL of lipopolysaccharide (LPS) for 24 h.

THP-1 cells [2] = test: In vitro immunogenicity cytokine release assay (ELISA); assay type: cell-based, human; details: THP-1, 24 h incubation
Procedure: The immunogenicity of NKsomes in THP-1 cells were tested for its inflammatory response using a cytokine release assay. In brief, 7.5×10^5 THP-1 cells were seeded in 12-well plate and treated with isolated NKM (100 μg/mL), NKsomes (100 μg/mL), Free DOX (5 μg/mL), DOX@NKsomes (equivalent DOX load) and Bare liposomes (100 μg/mL) for 24 h incubation. Positive (LPS, 3 μg/mL) and negative controls were maintained for assessing pro-inflammatory cytokines in THP-1 cells. The treated cell culture supernatants were collected, centrifuged to remove cell debris, aliquot and stored at −20° C. until needed. Samples were thawed and used for analyzing pro-inflammatory cytokines, IL-1β (0.8 pg/ml), IL-6 (0.4 pg/mL) and TNF-α (0.7 pg/mL) using quantitative enzyme-linked immunosorbent assay KIT (ELISA) (R&D Systems, Inc. Minneapolis, MN) as recommended by the manufacturer. Sample […] was measured at 450 nm with the wavelength correction at 540 nm using Synergy H1 hybrid microplate reader (BioTek Instruments Inc. VT).

NHost = test: Cell cycle analysis (propidium iodide, FACS); assay type: cell-based, human; details: DOX 5 μM, 12 h
Procedure: (§1) The in vitro cytotoxicity of DOX@NKsome and the equivalent Free DOX were investigated against MCF-7 cells and NHost using a cell cycle analysis and an MTT assay. For cell cycle analysis, 1×10^6 cells were treated with 5 μM of Free DOX, equivalent DOX@NKsomes and bare NKsomes (equivalent to DOX-loaded) for 12 h. After incubation, cells were harvested, fixed in 70% ethanol overnight, washed with PBS twice and then followed propidium iodide staining. Further, the samples were analyzed in FACS Calibur for cell cycle analysis.

MCF-7 cells [3] = test: Cell cycle analysis (propidium iodide, FACS); assay type: cell-based, human; details: MCF-7, DOX 5 μM, 12 h
Procedure: as §1

NHost cells = test: MTT assay; assay type: cell-based, human; details: DOX 0.5-15 μM, 24 h
Procedure: (§2) For MTT analysis, MCF-7 cells and NHost cells were treated with NKsomes with different DOX concentration along with free DOX and bare NKsomes. In brief, 2×10^4 cells per well in the respective medium were seeded in a 96-well plate and incubated for 24 h. While the cell reaches 80% confluence, the media was replaced with different DOX concentration of free DOX and NKsomes (0.5, 1.5, 3, 5, 10 and 15 uM) and incubated for additional 24 h. Control cells were maintained without DOX treatment. After incubation, MTT dye was added according to the manual instruction and further incubated for 3 h. The insoluble formation crystals were solubilized using DMSO, and the absorbance was read at 590 and 630 nm using microplate reader (BioTek, Synergy H1 Hybrid reader).

MCF-7 cells [4] = test: MTT assay; assay type: cell-based, human; details: MCF-7, DOX 0.5-15 μM, 24 h
Procedure: as §2

[5] = system: MCF-7 induced solid tumor model; test: In vivo anti-tumor therapy; parameters: species or system NU/NU nude mice
Procedure: The anti-tumor efficacy of DOX@NKsomes was determined along with free DOX and unloaded NKsomes (aka “empty” NKsomes) using MCF-7 induced solid tumor model in immunodeficient NU/NU nude mice (n=3). In brief, 1×10^6 MCF-7 cells in PBS was injected subcutaneously into the hind rear flank region of the mice and the tumor growth is monitored periodically. When the tumor size reached 4-5 mm, animals received 4 cycles of drug treatment at Day 1, 4, 7 and 10 [DOX@NKsomes and free DOX (equivalent DOX concentration of 5 mg/kg)] up to 3 weeks. Control groups were also maintained without any treatment and bare NKsomes (10 mg/kg). During the study, body weight and tumor volume of the animal groups were monitored periodically to assess the therapeutic effects. The tumor volume (V) was determined using V=L×W2/2, where L=length of the tumor and W=width of the tumor. At the end of the study, animals were euthanized, collected tumors and measured its size and weight. Further, the tumor tissues were embedded in OCT, cryosectioned and subjected to immunofluorescence for the qualitative accumulation of NKsomes in tumor tissues by assessing the NKM protein marker (CD 56).

## lipopolysaccharide [LPS]
THP-1 cells [1]
  immunogenicity (IL-1β, IL-6, TNF-α release): elevated levels of IL-1β, IL-6, and TNF-α

## COc1cccc2c1C(=O)c1c(O)c3c(c(O)c1C2=O)C[C@@](O)(C(=O)CO)C[C@@H]3O[C@H]1C[C@H](N)[C@H](O)[C@H](C)O1 [Free DOX, doxorubicin]
THP-1 cells [2]
  immunogenicity (pro-inflammatory cytokines): little elevation of IL-10 and TNF-α levels
NHost
  G1 fraction: 53.3%
  G2 fraction: 23.6%
MCF-7 cells [3]
  G1 fraction: 53%
  G2 fraction: 25%
NHost cells
  in vitro cytotoxicity (MTT): superior toxicity
MCF-7 cells [4]
  in vitro cytotoxicity (MTT): Dose-dependent cytotoxicity
[5]; DOX 5 mg/kg or bare NKsomes 10 mg/kg, Day 1, 4, 7, 10, from tumor weight
  tumor inhibition rate (IR %): 63.69%
[5]; end of study
  average tumor weight: 0.3 ± 0.04 g
[5]; end of treatment period
  tumor volume change: significant reduction in tumor volume
